Data reported in ChEMBL document CHEMBL1127252, “Anti-solid tumor efficacy and preparation of N-[[1-[[2-(diethylamino)ethyl]amino]-9-oxo-9H-thioxanthen-4-yl]methyl]methanesulfonamide (win 33377) and related derivatives” (1994).

Tests used:
Type in all cases: functional
[1] = tested on: Mus musculus; assay: The maximum tolerated total dose following i.v. administration in mice.
[2] = organism: Mus musculus; assay: Percent tumor growth inhibition in mice.
[3] = organism: Mus musculus; assay: Survival (Long Term Cure) of tumor inoculated mice after 100 days.
[4] = organism: Mus musculus; assay: Log cell kill of tumor (indicating the tumor growth delay) in mice.
[5] = tested on: Mus musculus; assay: Maximum tolerated total dose (MTD) was determined after intravenous administration in mice

Row | SMILES | MTD [1] [mg/kg] | T/C [2] [%] | LTC [3] | LCK [4] | MTD [5] [mg/kg]
1 | CCN(CC)CCNc1ccc(CNS(=O)(=O)c2ccccc2)c2sc3ccccc3c(=O)c12 | 840 | 0 | 1 | 2.9 | –
2 | CCN(CC)CCNc1ccc(CN(C)S(C)(=O)=O)c2sc3ccccc3c(=O)c12 | 304 | 0 | 1 | 2.5 | –
3 | CCN(CC)CCNc1ccc(CN(C)C)c2sc3ccccc3c(=O)c12 | 544 | 23 | 0 | 0.9 | –
4 | CCN(CC)CCNc1ccc(CNC(=O)C(F)(F)F)c2sc3ccccc3c(=O)c12 | 1171 | 21 | 0 | 1.5 | –
5 | CCN(CC)CCNc1ccc(CNC)c2sc3ccc(O)cc3c(=O)c12 | 60 | 0 | 0 | 4.6 | –
6 | COc1cccc2c1C(=O)c1c(O)c3c(c(O)c1C2=O)C[C@@](O)(C(=O)CO)C[C@@H]3O[C@H]1C[C@H](N)[C@H](O)[C@H](C)O1 [DOXORUBICIN] | 18 | 0 | 1 | 2.9 | –
7 | CCN(CC)CCNc1ccc(CNS(C)(=O)=O)c2sc3ccc(O)cc3c(=O)c12 | 47 | 11 | 0 | 3.7 | –
8 | CCN(CC)CCNc1ccc(CNC)c2sc3ccccc3c(=O)c12 | 800 | 0 | 1 | 3.1 | –
9 | CCN(CC)CCNc1ccc(CNC(=O)c2ccccc2)c2sc3ccccc3c(=O)c12 | 252 | 26 | 1 | 0.5 | –
10 | CCN(CC)CCNc1ccc(CNS(C)(=O)=O)c2sc3ccc(OC)cc3c(=O)c12 | 248 | 0 | 1 | 6.5 | –
11 | CCN(CC)CCNc1ccc(CO)c2sc3ccccc3c(=O)c12 [HYCANTHONE] | 290 | 4 | 0 | 3.4 | –
12 | CCN(CC)CCNc1ccc(CNC(=O)OC)c2sc3ccccc3c(=O)c12 | 248 | 0 | 2 | 8.8 | –
13 | CCN(CC)CCNc1ccc(CNC(=O)OC)c2sc3ccc(OC)cc3c(=O)c12 | 240 | 0 | 5 | >4.5 | –
14 | CCN(CC)CCNc1ccc(CNC=O)c2sc3ccccc3c(=O)c12 | 576 | 0 | 1 | 3 | –
15 | CCN(CC)CCNc1ccc(CN)c2sc3ccccc3c(=O)c12 | 270 | 0 | 4 | >4 | –
16 | CCN(CC)CCNc1ccc(CNS(C)(=O)=O)c2sc3ccccc3c(=O)c12 | – | 0 | 3 | 2 | 124
17 | CCN(CC)CCNc1ccc(CNC)c2sc3ccc(OC)cc3c(=O)c12 | 880 | 0 | 1 | 5.1 | –
18 | CCOP(=O)(NCc1ccc(NCCN(CC)CC)c2c(=O)c3ccccc3sc12)OCC | 1298 | 36 | 0 | <0.5 | –
19 | CCN(CC)CCNc1ccc(CNC(C)=O)c2sc3ccccc3c(=O)c12 | 540 | 0 | 3 | 2.7 | –
